Experimental data as given in patent US9675563B2, “Method for adjunctive treatment of cancer metastasis by using lycogen” (ASIA-PACIFIC BIOTECH DEVELOPING, INC., priority 2015, dated 2017).

Columns and labels:
Type in all cases: cell-based, human
HUVEC cells [1] = assay: In vitro angiogenesis assay (H2O2-induced tubeformation in matrigel); conditions: 5-FU alone, 6 hours after treatment
Experimental: (§1) The in vitro angiogenesis assay was a model test used for studying anti-angiogenic nutrient or drugs, and the assay was highly convenient and fast. […] H2O2 was used to induce tubeformation in matrigel to evaluate the effect of Lycogen on the index of angiogenesis. HUVEC cells were dissolved in 10% serum-containing culture media, and then HUVEC cells were seeded into matrigel pre-coated 24-well plates in a density of […] per well. Except for the control group HUVEC cells in all other groups were treated with solvent vehicle, 5-FU, 5-FU plus 10 μM Lycogen, 5-FU plus 30 μM Lycogen, and 5-FU plus 50 μM of Lycogen, respectively. Each assay under the same experimental condition was performed in duplicate and this experiment was repeated twice. Phase contrast photomicrographs were taken by a phase contrast microscope with 100× magnification at 6 hours after the treatment.

EA.hy926 cell line [2] = assay: Cancer cell invasion assay (Matrigel, fluorescent microscope); conditions: 25 μg/mL 5-FU, 24 hours, compared to 0 μg/ml group
Experimental: In one embodiment, the EA.hy926 cell line was used to analyze the ability of Lycogen on inhibiting cancer cell invasion. EA.hy926 cell line was treated with various concentration of Lycogen (0, 2, 5, and 10 μM) or 25 μg/mL 5-FU. Twenty-four hours after treatment, the Matrigel was used to analyze the cell invasion, and fluorescent microscope was used to observe the cancer cell invasion.
Cells were cultured on the plate, which was covered by a semipermeable membrane, to mimic the condition of cell invasion in vivo. The basal membrane was interrupted in invasive tumor cell to invade adjacent tissue. The cell culture plate was scratched by a sterile tip or cotton thread to create an acellular space. The cell lines were treated with different treatments, and then the cell number inside the membrane was counted.

HUVEC cells [3] = assay: Cell migration analysis under the angiogenesis assay conditions; conditions: 5-FU alone
Experimental: as §1
In another example, the effect of Lycogen on cell migration was analyzed under the same conditions of the aforementioned angiogenesis analysis.

EA.hy926 cell line [4] = assay: EA.hy926 cell migration analysis (migration areas); conditions: 25 μg/mL 5-FU, 24 hours
Experimental: In another example, the effect of Lycogen on cell migration in human umbilical vein endothelial cell line (EA.hy926 cell line) was analyzed. The cell line was treated with different concentrations of Lycogen (0, 2, 5, and 10 μM) or 25 μg/mL 5-FU, and the EA.hy926 cell migration was analyzed 24 hours after treatments to calculate the migration areas.

For `O=c1[nH]cc(F)c(=O)[nH]1` [5-FU], the cell tubeformation (HUVEC cells [1]) was “did inhibit”, the invaded cell number (EA.hy926 cell line [2]) was “significantly decreased” and the cell migration (HUVEC cells [3]) was “did inhibit”. The “cancer cell migration (migration areas)” value (EA.hy926 cell line [4]) was “had the ability of inhibiting cancer cell migration”.
